Results from US20220324865A1 (Bayer Aktiengesellschaft, priority 2018, published 2022).
Structures can show the parent of a compound that is named as a salt.

Biological target: T1, human EP3 receptor (Homo sapiens, UniProt P43115)
T1 construct: expressed in transfected cells; host or cells: CHO K1 (Chinese Hamster Ovary), stably co-transfected with Galpha16 and mitochondrial clytin
T1 sequence (P43115 1-390): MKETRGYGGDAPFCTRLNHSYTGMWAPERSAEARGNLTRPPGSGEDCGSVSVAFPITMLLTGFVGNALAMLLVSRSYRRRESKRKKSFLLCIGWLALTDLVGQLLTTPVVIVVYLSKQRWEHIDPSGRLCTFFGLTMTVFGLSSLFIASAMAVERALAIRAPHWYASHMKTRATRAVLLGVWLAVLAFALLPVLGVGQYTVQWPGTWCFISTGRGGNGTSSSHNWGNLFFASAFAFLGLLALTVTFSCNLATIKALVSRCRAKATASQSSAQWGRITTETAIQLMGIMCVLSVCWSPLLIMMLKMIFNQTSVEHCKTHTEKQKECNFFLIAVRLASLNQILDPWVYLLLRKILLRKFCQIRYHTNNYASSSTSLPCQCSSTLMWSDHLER
Assay: Cellular in vitro assay for determining EP3 receptor activity (human EP3 cell line, sulprostone-stimulated calcium luminescence)
Format: cell-based
Conditions: CHO cells expressing human EP3 and mitochondrial Clytin; antagonist mode, sulprostone at EC50; read-out: EP3 CHO mtCLY ANTAG IC50
Summary of the method: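 Antagonist activity was measured as inhibition of the luminescent calcium signal elicited by EC50 sulprostone, following 10 min compound pretreatment. The cell line was recombinant CHO K1 co-expressing human EP3, Gα16 and the photoprotein Clytin, reconstituted with coelenterazine.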

| IC50 [nM] | SMILES |
| --- | --- |
| 6.95 | CC(NC(=O)c1nn2cc(-c3ccc4ccccc4c3)[nH]c(=O)c2c1C#N)c1ccc(Cl)c(Cl)c1 (stereo not drawn) [Example 3-54, 3-Cyano-N-[1-(3,4-dichlorophenyl)ethyl]-6-(2-naphthyl)-4-oxo-5H-pyrazolo[1,5-a]pyrazine-2-carboxamide] |
| 0.26 | Cc1ccc(-c2cn3nc(C(=O)NCC(O)C(F)(F)F)c(C4CC4)c3c(=O)[nH]2)cc1C (racemic) [6-435] |
| 1.07 | O=C(NC(c1ccccc1)C(F)F)c1cc2c(=O)[nH]c(-c3ccc4ccccc4c3)cn2n1 (stereo not drawn) [Example 2-4, N-(2,2-Difluoro-1-phenylethyl)-6-(2-naphthyl)-4-oxo-4,5-dihydropyrazolo[1,5-a]pyrazine-2-carboxamide] |
| 8.63 | COc1ccc(CCNC(=O)c2cc3c(=O)[nH]c(-c4ccc5ccccc5c4)cn3n2)cc1OC [6-75] |
| 0.97 | Cc1ccc(-c2cn3nc(C(=O)NC(C)(C)C4CC4)c(C(F)(F)F)c3c(=O)[nH]2)cc1Cl [6-191] |
| 2.4 | Cc1cccc2ncc(-c3cn4nc(C(=O)NC(C)c5cccnc5)c(C(C)C)c4c(=O)[nH]3)cc12 (stereo not drawn) [Example 4-70, 3-Isopropyl-6-(5-methyl-3-quinolyl)-4-oxo-N-[1-(3-pyridyl)ethyl]-5H-pyrazolo[1,5-a]pyrazine-2-carboxamide] |
| 3.3 | CN1CC(NC(=O)c2nn3cc(-c4ccc5ccccc5c4)[nH]c(=O)c3c2Cl)(c2ccc(F)cc2)C1 [Example 1-119, 3-Chloro-N-[3-(4-fluorophenyl)-1-methylazetidin-3-yl]-6-(naphthalen-2-yl)-4-oxo-4,5-dihydropyrazolo[1,5-a]pyrazine-2-carboxamide] |
| 2.35 | CN1CC(NC(=O)c2nn3cc(-c4ccc5c(c4)OCCO5)[nH]c(=O)c3c2C2CC2)(c2ccc(F)cc2)C1 [6-467] |
| 4.57 | C[C@H](NC(=O)c1cc2c(=O)[nH]c(-c3ccc4ccccc4c3)cn2n1)c1ccc(F)cc1 [6-79] |
| 1.55 | CC(C)(O)[C@@H](NC(=O)c1cc2c(=O)[nH]c(-c3ccc4ccccc4c3)cn2n1)c1ccc(F)cc1 [Example 1-29, N-[(1S)-1-(4-Fluorophenyl)-2-hydroxy-2-methylpropyl]-6-(naphthalen-2-yl)-4-oxo-4,5-dihydropyrazolo[1,5-a]pyrazine-2-carboxamide] |
| 4.45 | Cc1nn(C)c(C)c1C(C)NC(=O)c1cc2c(=O)[nH]c(-c3ccc4ccccc4c3)cn2n1 (stereo not drawn) [Example 2-21, 6-(2-Naphthyl)-4-oxo-N-[1-(1,3,5-trimethyl-1H-pyrazol-4-yl)ethyl]-4,5-dihydropyrazolo[1,5-a]pyrazine-2-carboxamide] |
| 4.18 | Cc1c(C(=O)NC2(c3ccc(F)cc3)CN(C)C2)nn2cc(-c3ccc4ccccc4c3)[nH]c(=O)c12 [Example 1-34, N-[3-(4-Fluorophenyl)-1-methylazetidin-3-yl]-3-methyl-6-(naphthalen-2-yl)-4-oxo-4,5-dihydropyrazolo[1,5-a]pyrazine-2-carboxamide formic acid salt] |
| 4.75 | Cc1cccc2ncc(-c3cn4nc(C(=O)NCc5ccc(CN6CCCC6)cc5)c(C(C)C)c4c(=O)[nH]3)cc12 [Example 4-48, 6-(5-Methylquinolin-3-yl)-4-oxo-3-(propan-2-yl)-N-({4-[(pyrrolidin-1-yl)methyl]phenyl}methyl)-4,5-dihydropyrazolo[1,5-a]pyrazine-2-carboxamide] |
| 0.61 | COC[C@@H](NC(=O)c1nn2cc(-c3ccc4ccccc4c3)[nH]c(=O)c2c1C(F)(F)F)c1ccccc1 [6-495] |
| 0.63 | CC(C)(O)[C@@H](NC(=O)c1nn2cc(-c3cc(Cl)c(Cl)cc3F)[nH]c(=O)c2c1C1CC1)c1ccc(F)cc1 [6-583] |
| 0.725 | COCc1c(C(=O)N[C@H](CCO)c2ccccc2)nn2cc(-c3ccc4ccccc4c3)[nH]c(=O)c12 [Example 1-76, N-[(1R)-3-Hydroxy-1-phenylpropyl]-3-(methoxymethyl)-6-(naphthalen-2-yl)-4-oxo-4,5-dihydropyrazolo[1,5-a]pyrazine-2-carboxamide] |
| 1.65 | Cc1cccc2ncc(-c3cn4nc(C(=O)NC5(c6ccc(C#N)cc6)CC5)c(C(C)C)c4c(=O)[nH]3)cc12 [Example 4-3, N-[1-(4-Cyanophenyl)cyclopropyl]-6-(5-methylquinolin-3-yl)-4-oxo-3-(propan-2-yl)-4,5-dihydropyrazolo[1,5-a]pyrazine-2-carboxamide] |
| 2.3 | Cc1cc(-c2cn3nc(C(=O)N[C@@H](c4ccc(F)cc4)C(C)(C)O)c(C(C)C)c3c(=O)[nH]2)ccc1Cl [6-606] |
| 1.85 | COc1ccc(C(C)NC(=O)c2nn3c(C)c(-c4ccc5ccccc5c4)[nH]c(=O)c3c2C)cn1 (stereo not drawn) [Example 3-38, N-[1-(6-Methoxy-3-pyridyl)ethyl]-3,7-dimethyl-6-(2-naphthyl)-4-oxo-5H-pyrazolo[1,5-a]pyrazine-2-carboxamide] |
| 4.65 | Cc1c(C(=O)N[C@H]2CCc3ccccc32)nn2c(C)c(-c3ccc4ccccc4c3)[nH]c(=O)c12 [Example 3-29, N-[(7S)-2,3-Dihydro-1H-inden-1-yl]-3,7-dimethyl-6-(naphthalen-2-yl)-4-oxo-4,5-dihydropyrazolo[1,5-a]pyrazine-2-carboxamide] |

| IC50 [nM] | SMILES |
| --- | --- |
| 9.45 | Cc1c(C(=O)N[C@@H](CO)c2ccccc2)nn2c(C)c(-c3ccc4ccccc4c3)[nH]c(=O)c12 [Example 3-71, N-[(1R)-2-Hydroxy-1-phenylethyl]-3,7-dimethyl-6-(naphthalen-2-yl)-4-oxo-4,5-dihydropyrazolo[1,5-a]pyrazine-2-carboxamide] |
| 1.85 | O=C(NCC(O)C(F)(F)F)c1nn2cc(-c3ccc(Cl)c(Cl)c3)[nH]c(=O)c2c1C1CC1 (single isomer, unassigned) [6-417] |
| 1.2 | Cc1ccc(-c2cn3nc(C(=O)N[C@H](C)c4ccc(F)cc4)c(C4CC4)c3c(=O)[nH]2)cc1C [Example 1-84, 3-Cyclopropyl-6-(3,4-dimethylphenyl)-N-[(1R)-1-(4-fluorophenyl)ethyl]-4-oxo-4,5-dihydropyrazolo[1,5-a]pyrazine-2-carboxamide] |
| 3.15 | Cc1ccc(-c2cn3nc(C(=O)N[C@@H](CCO)c4ccc(F)cc4)cc3c(=O)[nH]2)cc1C [Example 1-70, 6-(3,4-Dimethylphenyl)-N-[(1S)-1-(4-fluorophenyl)-3-hydroxpropyl]-4-oxo-4,5-dihydropyrazolo-[1,5-a]pyrazine-2-carboxamide] |
| 7.27 | O=C(N[C@H]1CCc2ccccc21)c1cc2c(=O)[nH]c(-c3ccc4ccccc4c3)cn2n1 [Example 2-42, N-[(7S)-2,3-Dihydro-1H-inden-1-yl]-6-(2-naphthyl)-4-oxo-4,5-dihydropyrazolo[1,5-a]pyrazine-2-carboxamide] |
| 7.13 | O=C(NC(CO)(CO)C(F)(F)F)c1nn2cc(-c3ccc4ccccc4c3)[nH]c(=O)c2c1C(F)(F)F [6-498] |
| 10.9 | CC(CN1CCOCC1)NC(=O)c1nn2cc(-c3ccc4ccccc4c3)[nH]c(=O)c2c1C(F)(F)F (single isomer, unassigned) [6-523] |
| 0.88 | Cc1ccc(-c2cn3nc(C(=O)NC(C)c4ccc(O)cc4)cc3c(=O)[nH]2)cc1C (single isomer, unassigned) [6-349] |
| 1.95 | Cc1cc(-c2cn3nc(C(=O)N[C@H](C)C4CC4)c(C(F)(F)F)c3c(=O)[nH]2)ccc1Cl [6-218] |
| 1.28 | COc1ccc(C2(NC(=O)c3cc4c(=O)[nH]c(-c5ccc6ccccc6c5)cn4n3)CN(C(=O)OC(C)(C)C)C2)cn1 [Example 1-6, tert.-Butyl 3-(6-methoxypyridin-3-yl)-3-({[6-(naphthalen-2-yl)-4-oxo-4,5-dihydropyrazolo[1,5-a]-pyrazin-2-yl]carbonyl}amino)azetidine-1-carboxylate] |
| 0.67 | COC[C@@H](NC(=O)c1nn2cc(-c3ccc(C)c(Cl)c3)[nH]c(=O)c2c1C(F)(F)F)c1ccccc1 [6-177] |
| 7.8 | CC[C@@H](C)NC(=O)c1nn2cc(-c3cnc4cccc(C)c4c3)[nH]c(=O)c2c1C(F)(F)F [6-547] |
| 2.15 | COc1ccc(C(CCO)NC(=O)c2cc3c(=O)[nH]c(-c4ccc(C)c(C)c4)cn3n2)cc1 (racemic) [Example 1-11, rac-6-(3,4-Dimethylphenyl)-N-[3-hydroxy-1-(4-methoxyphenyl)propyl]-4-oxo-5H-pyrazolo[1,5-a]-pyrazine-2-carboxamide] |
| 1.45 | Cc1cc(-c2cn3nc(C(=O)NC(c4ccc(F)cc4)C4(O)CC4)c(C(F)(F)F)c3c(=O)[nH]2)ccc1Cl (racemic) [6-210] |
| 5.15 | COc1ccc(C2(NC(=O)c3nn4cc(-c5ccc(C)c(C)c5)[nH]c(=O)c4c3C3CC3)CN(C)C2)cc1 [6-427] |
| 1.16 | C[C@H](NC(=O)c1nn2cc(-c3cc(F)c(Cl)c(F)c3)[nH]c(=O)c2c1C1CC1)C1CC1 [6-472] |
| 0.82 | Cc1ccc(-c2cn3nc(C(=O)NC(c4ccc(F)cc4)C(C)(C)O)c(C4CC4)c3c(=O)[nH]2)cc1F (racemic) [6-402] |
| 1.1 | Cc1ccc(-c2cn3nc(C(=O)N[C@@H](C)C4CC4)c(C4CC4(F)F)c3c(=O)[nH]2)cc1Cl (stereo partly drawn) [6-561] |
| 2.25 | C[C@H](NC(=O)c1nn2cc(-c3ccc(Cl)c(F)c3)[nH]c(=O)c2c1C1CC1(F)F)C1CC1 (stereo partly drawn) [6-566] |
